# Experimental data from the RepoRT retention time repository (doi:10.1093/pcp/pcn183).
# Counter-ions that a name gives are not always drawn.
# Assay: RP, Waters ACQUITY UPLC BEH C18, 38 °C, 0.24 mL/min; A: water + 0.1% formic acid, pH 3; B: acetonitrile + 0.1% formic acid, pH 3; gradient (min/%B) 0/0 0.25/0 0.4/9 0.8/17 1.9/100 2.1/100 2.11/0 3/0
# Details: stereoisomer not certain
row,SMILES,LC retention time [min]
1,CCCCCCCCCCCCCCCC(O)C(N)CO [D-erythro-Dihydrosphingosine],1.98
2,NC(CCC(=O)NC(CSSCC(NC(=O)CCC(N)C(=O)O)C(=O)NCC(=O)O)C(=O)NCC(=O)O)C(=O)O (stereo not drawn) [Glutathione (oxidized form)],0.95
3,CCC=CCC1C(=O)CCC1CC(=O)O (racemic) [(+-)-Jasmonic acid],1.68
4,CC(=O)Oc1ccc2c(C)cc(=O)oc2c1 [4-methylumbelliferyl acetate],1.69
5,COc1ccc(C=CC(=O)O)cc1 [4-Methoxycinnamic acid],1.65
6,"OCC1OC(Oc2cc(O)cc(C=Cc3ccc(O)c(O)c3)c2)C(O)C(O)C1O (stereo not drawn) [E-3,4,5'-trihydroxy-3'-glucopyranosylstilbene]",1.33
7,C[n+]1cccc(C(N)=O)c1 [1-Methylnicotinamide chloride],0.18
8,O=P(O)(O)OC1C(O)C(O)C(OP(=O)(O)O)C(O)C1O (stereo not drawn),2.13
9,NC1(C(=O)O)CCCC1 [1-Amino-1-cyclopentanecarboxylic acid],0.32
10,CS(=O)C=CCCN=C=S (stereo not drawn),1.44
11,NCCc1c[nH]c2ccccc12 [3-(2-Aminoethyl)indole Hydrochloride],1.22
12,"Cn1c(=O)[nH]c2ncn(C)c2c1=O [1,7-Dimethylxanthine]",1.15
13,"O=C(O)Cc1ccc(O)c(O)c1 [3,4-dihydroxyphenylacetic acid]",1.16
14,OCC1OC(OC2C(Oc3cc4c(O)cc(O)cc4[o+]c3-c3ccc(O)c(O)c3)OC(CO)C(O)C2O)C(O)C(O)C1O (stereo not drawn),1.16
15,CCC(C)C(=O)C(=O)O (racemic) [(+-)-3-Methyl-2-oxovaleric acid sodium salt],1.21
16,COc1cc(CNC(=O)CCCCC=CC(C)C)ccc1O [Capsaicin],1.93

row,SMILES,LC retention time [min]
1,C[N+](C)(C)CC(=O)[O-] [Betaine],0.17
2,O=P(O)(O)OCC1OC(O)CC1O (stereo not drawn) [2-Deoxyribose-5-phosphate sodium salt],0.18
3,CC(CN)C(=O)O (racemic) [DL-3-Aminoisobutyric acid],0.19
4,CC(C)CC(O)C(=O)O (stereo not drawn) [2-Hydroxyisocaproic acid],1.34
5,N=C(N)c1ccccc1 [Benzamidine hydrochloride hydrate],0.78
6,C[N+](C)(C)CCOP(=O)(O)OP(=O)([O-])OCC1OC(n2ccc(N)nc2=O)C(O)C1O (stereo not drawn),0.2
7,"NCCCCN [1,4-Diaminobutane]",0.14
8,N[C@H](CS)C(=O)O [D-Cysteine],0.15
9,CC(C)(COP(=O)(O)OP(=O)(O)OCC1OC(n2cnc3c(N)ncnc32)C(O)C1O)C(O)C(=O)NCCC(=O)NCCS (stereo not drawn) [3'-Dephosphocoenzyme A],1.12
10,CC[C@H](C)[C@H](N)CC(=O)O [L-beta-Homoisoleucine hydrochloride],1.1
11,Oc1cc(O)c2cc(OC3OCC(O)C(O)C3O)c(-c3ccc(O)c(O)c3)[o+]c2c1 (stereo not drawn) [Cyanidin-3-O-alpha-arabinopyranoside],1.23
12,OCC1OC(Oc2cc3c(O)cc(O)cc3[o+]c2-c2cc(O)c(O)c(O)c2)C(O)C(O)C1O (stereo not drawn) [Delphinidin-3-O-beta-glucopyranoside],1.16
13,CC(C)CCC(=O)O [4-methyl valeric acid],0.56
14,O=C1CC(c2ccc(O)c(O)c2)Oc2cc(O)cc(O)c21 (stereo not drawn) [Eriodictyol],1.59
15,NCCCCCN [Cadaverine],0.14
16,"CN1CC(=O)NC1=N [Creatinine,anhydrous]",0.19

# The remaining lines, values ahead:
row,LC retention time [min],SMILES
1,1.36,O=C(O)C(=O)Cc1ccccc1 [Sodium phenylpyruvate]
2,0.19,C[C@@H](O)[C@H](N)CC(=O)O [L-beta-homothreonine]
3,1.49,O=C(CCc1ccc(O)cc1)c1c(O)cc(O)cc1OC1OC(CO)C(O)C(O)C1O (stereo not drawn) [Phloridzin]
4,0.18,CNC(C)C(=O)O (racemic) [N-Methyl-DL-Alanine]
5,1.46,CC1OC(Oc2c(-c3ccc(O)c(O)c3)oc3cc(O)cc(O)c3c2=O)C(O)C(O)C1O (stereo not drawn) [Quercitrin]
6,0.31,O=c1cc[nH]c(=O)[nH]1 [Uracil]
7,1.08,Nc1nc2c(ncn2C2OC(CO)C(O)C2O)c(=O)[nH]1 (stereo not drawn) [Guanosine]
8,1.11,Cc1cn(C2CC(O)C(CO)O2)c(=O)[nH]c1=O (stereo not drawn) [Thymidine]
9,1.7,CC1(C(=O)O)CCC2(C)CCC3(C)C(=CC(=O)C4C5(C)CCC(OC6OC(C(=O)O)C(O)C(O)C6OC6OC(C(=O)O)C(O)C(O)C6O)C(C)(C)C5CCC43C)C2C1 (stereo not drawn) [Glycyrrhizin]
10,0.17,NC(=O)CC[C@H](N)C(=O)O [L-Glutamine]
11,0.16,N[C@@H](CO)C(=O)O [L-Serine]
12,1.32,N=c1nc(N2CCCCC2)cc(N)n1O [Minoxidil]
13,0.39,Cc1ncc(COP(=O)(O)O)c(C=O)c1O [pyridoxal-5'-phosphate hydrate]
14,1.45,COc1cc(-c2oc3cc(O)cc(O)c3c(=O)c2OC2OC(CO)C(O)C(O)C2O)ccc1O (stereo not drawn) [isorhamnetin-3-O-glucoside]
15,0.19,OCC1OC(OCC2OC(O)(CO)C(O)C2O)C(O)C(O)C1O (stereo not drawn) [Palatinose Monohydrate]
16,0.44,Nc1nc2c(ncn2C2OC(COP(=O)(O)O)C(O)C2O)c(=O)[nH]1 (stereo not drawn) [Guanosine-5'-monophosphate]

row,LC retention time [min],SMILES
1,0.17,CC(O)CN (stereo not drawn) [R-(-)-1-Amino-2-propanol]
2,0.17,C[C@H](N)C(=O)O [L-Alanine]
3,0.16,NC(=O)C[C@H](N)C(=O)O [L-Asparagine]
4,0.14,NCCc1cnc[nH]1 [Histamine]
5,0.16,NCCC(=O)O [beta-Alanine]
6,1.1,O=C(O)Cc1cc(O)ccc1O [Homogentisic acid]
7,0.14,NCCC[C@H](N)C(=O)O [L-Ornithine monohydrochloride]
8,0.19,C[S+](CCC(N)C(=O)[O-])CC1OC(n2cnc3c(N)ncnc32)C(O)C1O [S-(5'-Adenosyl)-L-methionine chloride]
9,1.44,COc1cc(/C=C/C(=O)O)ccc1O [trans-4-Hydroxy-3-methoxycinnamic acid]
10,0.18,"CC(=O)NC1C(O)CC(O)(C(=O)O)OC1C(O)C(O)CO (stereo not drawn) [N-acetylneuraminic acid,Type IV-S,Synthetic]"
11,0.53,Cc1ncc(CO)c(CO)c1O [Pyridoxine]
12,1.16,CC(=CCNc1ncnc2c1ncn2C1OC(CO)C(O)C1O)CO (stereo not drawn) [trans-Zeatin-riboside]
13,0.16,NCCCC(=O)NC(Cc1cnc[nH]1)C(=O)O [L-Homocarnosine]
14,1.21,CCCCCCN [Hexylamine]
15,0.27,Nc1nc2c(ncn2C2OC(COP(=O)(O)OP(=O)(O)OC3OC(CO)C(O)C(O)C3O)C(O)C2O)c(=O)[nH]1 [Guanosine-5'-diphosphate-D-mannose sodium salt]
